Our source for the IC50 values is patent US10336697B2, “Spiro[cyclobutane-1,3′-indolin]-2′-one derivatives as bromodomain inhibitors” (Orion Corporation, priority 2015, dated 2019).

What is called IC50 is the concentration at which inhibition is half-maximal.

Where a name gives a salt, the structure may show the parent alone.

The target of this assay is Bet BRD4 full length bromo-domain protein (Homo sapiens, UniProt O60885). The experiment in a line: Bet bromodomain TR-FRET assay (displacement of acetyl histone peptide). Type of assay: binding. The note with it: Bet BRD4 full length bromodomain protein, 300 nM acetyl histone peptide substrate, read-out: IC50. On the technique in general: TR-FRET usually uses a lanthanide donor and a delayed reading to cut background.

Turning to `O=C1Nc2c(CO)cc(NS(=O)(=O)c3ccc(F)cc3F)cc2C12CCC2` [Compound 69, 2,4-Difluoro-N-(7′-(hydroxymethyl)-2′-oxospiro[cyclobutane-1,3′-indolin]-5′-yl)benzenesulfonamide], the IC50 was less than 600 nM.

For the compound `CCN1CCCC(Nc2cc(NS(=O)(=O)c3ccc(F)cc3F)cc3c2NC(=O)C32CCC2)C1` (stereo not drawn) [Compound 70, N-(7′-((1-ethylpiperidin-3-yl)amino)-2′-oxospiro[cyclobutane-1,3′-indolin]-5′-yl)-2,4-difluorobenzenesulfonamide], the IC50 was less than 600 nM. On to `O=C1Nc2c(NC3CCCNC3)cc(NS(=O)(=O)c3ccc(F)cc3F)cc2C12CCC2` (stereo not drawn) [Compound 71, 2,4-Difluoro-N-(2′-oxo-7′-(piperidin-3-ylamino)spiro[cyclobutane-1,3′-indolin]-5′-yl)benzenesulfonamide hydrochloride], for which the IC50 was less than 600 nM.

With `CN1CCC(NC(=O)c2cc(N(C)S(=O)(=O)c3ccc(F)cc3F)cc3c2NC(=O)C32CCC2)CC1` [Compound 72, 5′-((2,4-Difluoro-N-methylphenyl)sulfonamido)-N-(1-methylpiperidin-4-yl)-2′-oxospiro[cyclobutane-1,3′-indoline]-7′-carboxamide], the IC50 was greater than 1000 nM. To `CN1CCC(NC(=O)c2cc(NS(=O)(=O)c3ccccc3F)cc3c2NC(=O)C32CCC2)CC1` [Compound 73, 5′-(2-Fluorophenylsulfonamido)-N-(1-methylpiperidin-4-yl)-2′-oxospiro[cyclobutane-1,3′-indoline]-7′-carboxamide] belongs less than 600 nM; to `CN1CCC(NC(=O)c2cc(NS(=O)(=O)c3ccc(Br)cc3F)cc3c2NC(=O)C32CCC2)CC1` [Compound 74, 5′-((4-Bromo-2-fluorophenyl)sulfonamido)-N-(1-methylpiperidin-4-yl)-2′-oxospiro[cyclobutane-1,3′-indoline]-7′-carboxamide], less than 600 nM. To `CN1CCC(NC(=O)c2cc(NC(=O)c3ccc(F)cc3F)cc3c2NC(=O)C32CCC2)CC1` [Compound 75, 5′-(2,4-Difluorobenzamido)-N-(1-methylpiperidin-4-yl)-2′-oxospiro[cyclobutane-1,3′-indoline]-7′-carboxamide] belongs greater than 1000 nM; to `O=C(Nc1cc(C2CC2)c2c(c1)C1(CCC1)C(=O)N2)c1ccc(F)cc1` [Compound 75a, N-(7′-Cyclopropyl-2′-oxospiro[cyclobutane-1,3′-indolin]-5′-yl)-4-fluorobenzamide], 600 to 1000 nM; to `O=C1C=C(Nc2cc(NS(=O)(=O)c3ccc(F)cc3F)cc3c2NC(=O)C32CCC2)CCN1` [Compound 76, 2,4-Difluoro-N-(2′-oxo-7′-((6-oxo-1,2,3 ,6-tetrahydropyridin-4-yl)-amino)spiro[cyclobutane-1,3′-indolin]-5′-yl)benzenesulfonamide], less than 600 nM.

Turning to `COc1ccccc1S(=O)(=O)Nc1cc(NC2=CC(=O)NCC2)c2c(c1)C1(CCC1)C(=O)N2` [Compound 77, 2-Methoxy-N-(2′-oxo-7′-((6-oxo-1,2,3,6-tetrahydropyridin-4-yl)amino)spiro[cyclobutane-1,3′-indolin]-5′-yl)benzenesulfonamide], the IC50 was less than 600 nM. To `COc1ccccc1S(=O)(=O)Nc1cc(NC2CCN(C)CC2F)c2c(c1)C1(CCC1)C(=O)N2` (stereo not drawn) [Compound 78, N-(7′-((3-fluoro-1-methylpiperidin-4-yl)amino)-2′-oxospiro [cyclobutane-1,3′-indolin]-5′-yl)-2-methoxy benzenesulfonamide] belongs less than 600 nM; to `O=C1Nc2c(NC3CCNCC3)cc(NS(=O)(=O)c3ccc(F)cc3F)cc2C12CCC2` [Compound 79a, 2,4-Difluoro-N-(2′-oxo-7′-(piperidin-4-ylamino)spiro [cyclobutane-1,3′-indolin]-5′-yl)benzenesulfonamide], less than 600 nM.
